Experimental data: US9975854B2, “Benzomorphan analogs and use thereof” (Purdue Pharma L.P., priority 2014, dated 2018)

How the values were obtained:
κ-opioid receptor [1] = target: T1, κ-opioid receptor (Homo sapiens (Human), UniProt P41145); experiment: κ-opioid receptor radioligand dose-displacement binding assay ([3H]-U69,593); conditions: binding affinity, HEK-293 or CHO cells
Description: Membranes from recombinant HEK-293 cells, CHO or U-2 OS cells expressing the recombinant human κ opioid receptor (κ) were prepared by lysing cells in ice cold hypotonic buffer (2.5 mM MgCl2, 50 mM HEPES, pH 7.4) (10 mL/10 cm dish) followed by homogenization with a tissue grinder/Teflon pestle. Membranes from a cell line naturally expressing kappa opioid receptors can also be used. Membranes were collected by centrifugation at 30,000×g for 15 min at 4° C. and pellets were resuspended in hypotonic buffer to a final concentration of 1-3 mg/mL. Protein concentrations were determined using the BioRad protein assay reagent with bovine serum albumen as standard. Aliquots of κ receptor membranes were stored at −80° C.
Radioligand dose displacement assays used 0.4 nM [^3H]-U69,593 (GE Healthcare, Piscataway, N.J.; 40 Ci/mmole) with 15 μg membrane protein (recombinant K opioid receptor expressed in HEK 293 cells; in-house prep) in a final volume of 200 μl binding buffer (5% DMSO, 50 mM Trizma base, pH 7.4). Non-specific binding was determined in the presence of 10 μM unlabeled naloxone or U69,593. All reactions were performed in 96-well polypropylene plates for 1 hr at a temperature of about 25° C. Binding reactions were terminated by rapid filtration onto 96-well Unifilter GF/C filter plates (Perkin Elmer, Shelton, Conn.) presoaked in 0.5% polyethylenimine (Sigma). Harvesting was performed using a 96-well tissue harvester (Perkin Elmer, Shelton, Conn.) followed by five filtration washes with 200 μl ice-cold binding buffer. Filter plates were subsequently dried at 50° C. for 1-2 hours. Fifty μl/well scintillation cocktail (Perkin Elmer, Shelton, Conn.) was added and plates were counted in a Packard Top-Count for 1 min/well.
In TABLE 3, binding affinity of certain Compounds of the Invention to the ORL-1, μ-, and κ-opioid receptors was determined as described above in HEK-293 or CHO cells.

μ-opioid receptor = μ-opioid receptor (Homo sapiens (Human), UniProt P35372); experiment: μ-opioid receptor [35S]GTPγS functional assay, HEK-293 or CHO cells; type: biochemical; conditions: HEK-293 or CHO cells; for EC50: read-out: GTPγS μ EC50; for Emax: relative to DAMGO
Summary of the method: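 Membranes from recombinant human μ-opioid receptor cells (HEK-293, CHO or U-2 OS) at 0.026 mg/mL with saponin, […] and 0.20 nM [35S]GTPγS in HEPES buffer pH 7.4, incubated 30 min at about 25 °C; bound radioactivity by filtration. EC50 from sigmoidal fit; Emax relative to DAMGO.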

κ-opioid receptor [2] = target: T1, κ-opioid receptor; experiment: κ-opioid receptor [35S]GTPγS functional assay, HEK-293 or CHO cells; type: biochemical
Description: Functional [^35S]GTPγS binding assays were conducted as follows. K opioid receptor membrane solution was prepared by sequentially adding final concentrations of 0.026 μg/μl κ membrane protein (in-house), 10 μg/mL saponin, 3 μM GDP and 0.20 nM [^35S]GTPγS to binding buffer (100 mM NaCl, 10 mM MgCl2, 20 mM HEPES, pH 7.4) on ice. The prepared membrane solution (190 μl/well) was transferred to 96-shallow well polypropylene plates containing 10 μl of 20× concentrated stock solutions of agonist prepared in DMSO. Plates were incubated for 30 min at a temperature of about 25° C. with shaking. Reactions were terminated by rapid filtration onto 96-well Unifilter GF/B filter plates (Perkin Elmer, Shelton, Conn.) using a 96-well tissue harvester (Packard) and followed by three filtration washes with 200 μl ice-cold binding buffer (10 mM NaH2PO4, 10 mM Na2HPO4, pH 7.4). Filter plates were subsequently dried at 50° C. for 2-3 hours. Fifty μl/well scintillation cocktail (Perkin Elmer, Shelton, Conn.) was added and plates were counted in a Packard Top-Count for 1 min/well.
κ GTP EC50 is the concentration of a compound providing 50% of the maximal response for the compound at a κ receptor. […]
In TABLE 4, activity response of certain Compounds of the Invention to the μ- and κ-opioid receptors was determined as described above for functional assays using HEK-293 or CHO cells.

Row | Structure (SMILES) | Ki (κ-opioid receptor [1]) | EC50 (μ-opioid receptor) | Emax (μ-opioid receptor) | EC50 (κ-opioid receptor [2]; bound given in uM) | Emax (κ-opioid receptor [2]; relative to U69,593) | Ki (κ-opioid receptor [1]; bound given in uM)
1 | CN1CC[C@@]2(C)c3cc(O)ccc3C[C@@H]1[C@@H]2NCCc1ccc(S(C)(=O)=O)cc1 [Compound 10, (2R,6S,11R)-3,6-dimethyl-11-((4-(methylsulfonyl)phenethyl)amino)-1,2,3,4,5,6-hexahydro-2,6-methanobenzo[d]azocin-8-ol] | 0.301 ± 0.00979 µM | 225 ± 60.8 nM | 38.5 ± 2.33% | > 20 µM | 1% | –
2 | CC(C)S(=O)(=O)N1CCC(CN(C)[C@H]2[C@H]3Cc4ccc(O)cc4[C@]2(C)CCN3C)CC1 [Compound 55, (2R,6S,11R)-11-(((1-(isopropylsulfonyl)piperidin-4-yl)methyl)(methyl)amino)-3,6-dimethyl-1,2,3,4,5,6-hexahydro-2,6-methanobenzo[d]azocin-8-ol] | – | 3.28 ± 0.39 nM | 52 ± 4.85% | – | – | > 20 µM
3 | CN1CC[C@@]2(C)c3cc(O)ccc3C[C@@H]1[C@@H]2N(C)CC1CCN(CC(C)(C)O)CC1 [Compound 97, (2R,6S,11R)-11-(((1-(2-hydroxy-2-methylpropyl)piperidin-4-yl)methyl)(methyl)amino)-3,6-dimethyl-1,2,3,4,5,6-hexahydro-2,6-methanobenzo[d]azocin-8-ol] | 0.00212 ± 0.00055 µM | 22.6 ± 2.34 nM | 47 ± 1.53% | – | – | –
